Experiment [1] concerns the target T1, Rat A1 AR (Rattus norvegicus, UniProt P25099).
T1 construct: Rat brain preparations were used for A1- and A2A adenosine receptor (AR); from tissue; host or cells: rat cortex
T1 sequence (P25099 1-326): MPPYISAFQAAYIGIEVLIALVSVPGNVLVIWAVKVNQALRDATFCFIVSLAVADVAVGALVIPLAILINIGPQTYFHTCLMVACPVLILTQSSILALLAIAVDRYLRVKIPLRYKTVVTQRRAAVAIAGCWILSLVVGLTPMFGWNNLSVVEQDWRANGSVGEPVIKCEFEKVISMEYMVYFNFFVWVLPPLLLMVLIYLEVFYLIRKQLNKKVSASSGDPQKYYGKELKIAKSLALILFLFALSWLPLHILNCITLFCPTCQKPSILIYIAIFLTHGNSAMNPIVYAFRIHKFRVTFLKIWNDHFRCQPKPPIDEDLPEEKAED
The experiment is described as follows: Radioligand binding assay 1, rat A1 adenosine receptor. Particulars: rat cortex, [3H]CCPA. On the procedure:
(§1) Rat brain preparations were used for A1- and A2A adenosine receptor (AR) and human recombinant cell samples for A1-, A2A- and A3 adenosine receptor radioligand binding studies. Affinity and selectivity was tested in displacement experiments with following radioligands: [^3H]CCPA for A1-adenosine receptors, [^3H]MSX-2 for A2A-receptors and [^3H]PSB-11 for A3-receptors. Results of these experiments are depicted in table 2b (human data) and table 2a (rat data). Radioligand binding test systems are e.g. generally described by Muller et al., Curr. Pharm. Des., 1996, 2, 501 and Weyler et al., ChemMedChem 2006, 1, 891 and references cited therein) These documents are incorporated herein by reference.

For experiment [2], the target named is T2, Rat A2A AR (Rattus norvegicus, UniProt P30543).
T2 construct: A2A adenosine receptors from rat striatum; from tissue; host or cells: rat striatum
The experiment is described as follows: Radioligand binding assay 1, rat A2A adenosine receptor. The conditions noted are these: rat striatum, [3H]MSX-2. On the procedure:
as §1

Our source for the Ki values is patent US20080221134A1, “8-ALKYNYLXANTHINES AND DERIVATIVES” (priority 2006, published 2008).

T2 sequence (P30543 whole entry): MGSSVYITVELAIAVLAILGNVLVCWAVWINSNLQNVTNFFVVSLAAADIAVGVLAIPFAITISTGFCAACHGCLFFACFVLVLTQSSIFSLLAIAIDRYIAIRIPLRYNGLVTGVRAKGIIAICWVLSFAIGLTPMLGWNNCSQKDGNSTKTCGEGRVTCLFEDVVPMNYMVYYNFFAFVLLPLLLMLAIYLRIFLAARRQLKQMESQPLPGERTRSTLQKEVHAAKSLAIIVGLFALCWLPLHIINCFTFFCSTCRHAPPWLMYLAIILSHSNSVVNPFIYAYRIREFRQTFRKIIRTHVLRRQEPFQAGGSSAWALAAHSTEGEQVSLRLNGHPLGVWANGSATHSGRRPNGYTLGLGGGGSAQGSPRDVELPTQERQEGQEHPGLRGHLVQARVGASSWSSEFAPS

For the molecule `C#CCn1c(=O)c2c(nc(C#Cc3ccc(F)c(OC)c3)n2C)n(C)c1=O`, the inhibitory constant (Ki) was above 1000 nM in experiment [1] and 70.3 ± 5.39 nM in experiment [2].
For `C#CCn1c(=O)c2c(nc(C#Cc3cc(C)c(C)cc3C)n2C)n(C)c1=O` the same measures were above 10000 nM and 4340 ± 840 nM.
For `C#CCn1c(=O)c2c(nc(C#Cc3ccc(OC)c(OC)c3)n2C)n(CCC)c1=O` [drawing 515] the same measures were at least 1000 nM and 13.4 ± 6.5 nM.
In the case of `C#CCn1c(=O)c2c(nc(C#Cc3ccc(OC)c(OC)c3)n2C)n(CC(=O)OCC)c1=O`, the values for the Ki in experiment [1] and in experiment [2] were at least 1000 nM and 167 ± 82 nM, respectively.
In the case of `C#CCn1c(=O)c2c(nc(C#Cc3cccc(Br)c3)n2C)n(C)c1=O` [drawing 462], the values for the inhibitory constant (Ki) in experiment [1] and in experiment [2] were at least 10000 nM and 151 ± 19 nM, respectively.
Consider `C#CCn1c(=O)c2c(nc(C#Cc3ccc(OC)c(OC)c3)n2C)n(CCCOC)c1=O` [drawing 506], for which the inhibition constant Ki in experiment [1] was above 1000 nM; in experiment [2], 44 ± 6.2 nM.
As to `C#CCn1c(=O)c2c(nc(C#Cc3ccoc3)n2C)n(CC)c1=O`, the inhibitory constant (Ki) in experiment [1] is above 1000 nM; in experiment [2] it was 220 ± 21 nM.
Take `C#CCn1c(=O)c2c(nc(C#Cc3cccc(F)c3)n2C)n(C)c1=O`: the figures for the Ki in experiment [1] and in experiment [2] were above 10000 nM and 466 ± 36 nM, respectively.
On the same counts, the results for `C#CCn1c(=O)c2c(nc(C#Cc3cccc(OCCN(C)C)c3)n2C)n(C)c1=O` [drawing 473] are 194 ± 33 nM and 49 ± 5 nM.
`C#CCn1c(=O)c2c(nc(C#Cc3ccc(OC)c(OC)c3)n2C)n(CC(C)=O)c1=O` [drawing 525]: the Ki in experiment [1] is above 1000 nM; in experiment [2], 18.5 ± 5 nM.
As for `C#CCn1c(=O)c2c(nc(C#Cc3cccc(OC)c3)n2C)n(CCC2OCCO2)c1=O`, the figures for the inhibitory constant (Ki) in experiment [1] and in experiment [2] were at least 1000 nM and 120 ± 18 nM, respectively.
On the same counts, the results for `C#CCn1c(=O)c2c(nc(C#Cc3cccc(Cl)c3)n2C)n(C)c1=O` [drawing 461] are above 10000 nM and 46 ± 9 nM.
On the same counts, the results for `C#CCn1c(=O)c2c(nc(C#Cc3cncn3C)n2C)n(CC)c1=O` [drawing 511] are 460 ± 61 nM and 119 ± 26 nM.
On the same counts, the results for `C#CCn1c(=O)c2c(nc(C#Cc3cccc(C)c3)n2C)n(CC)c1=O` [drawing 486] are above 10000 nM and 76.3 ± 17.1 nM.
On to `C#CCn1c(=O)c2c(nc(C#Cc3ccc(OC)c(OC)c3)n2C)n(CCCO)c1=O` [drawing 533], for which the figures for the Ki in experiment [1] and in experiment [2] were 337 ± 67 nM and 30.1 ± 5.4 nM, respectively.
For `C#CCn1c(=O)c2c(nc(C#Cc3cccc(O)c3)n2C)n(C)c1=O` [drawing 475] the same measures were 425 ± 99 nM and 173 ± 35 nM.
On the same counts, the results for `C#CCn1c(=O)c2c(nc(C#Cc3ccc(OC)c(OC)c3)n2C)n(CC(=C)C)c1=O` are above 1000 nM and 28.6 ± 9.7 nM.
For `C#CCn1c(=O)c2c(nc(C#Cc3ccc(OC)c(OC)c3)n2C)n(Cc2cccs2)c1=O` [drawing 520] the same measures were above 1000 nM and 103 ± 21 nM.
For `C#CCn1c(=O)c2c(nc(C#Cc3ccc(OC)c(OC)c3)n2C)n(CCO)c1=O` [drawing 499], the Ki is above 1000 nM in experiment [1] and 45.5 ± 10.4 nM in experiment [2].
In the case of `C#CCn1c(=O)c2c(nc(C#Cc3ccc4c(c3)OCO4)n2C)n(CC)c1=O`, the figures for the Ki in experiment [1] and in experiment [2] were above 1000 nM and 29.6 ± 6.1 nM, respectively.
On the same counts, the results for `C#CCn1c(=O)c2c(nc(C#Cc3cccc(OC)c3)n2C)n(CCBr)c1=O` are above 1000 nM and 90 ± 25 nM.
On the same counts, the results for `C#CCn1c(=O)c2c(nc(C#Cc3cccc(OCCCN(C)C)c3)n2C)n(C)c1=O` [drawing 470] are 186 ± 3 nM and 40 ± 1 nM.
As for `C#CCn1c(=O)c2c(nc(C#Cc3ccc(Cl)c(Cl)c3)n2C)n(CC)c1=O` [drawing 550], the Ki was above 1000 nM in experiment [1] and 132 ± 96 nM in experiment [2].
For `C#CCn1c(=O)c2c(nc(C#Cc3ccc(OC)cc3)n2C)n(CC)c1=O` the same measures were above 1000 nM and 28.6 ± 13.3 nM.
Regarding `C#CCn1c(=O)c2c(nc(C#Cc3ccc(OC)c(OC)c3)n2C)n(Cc2ccno2)c1=O`, the inhibition constant Ki in experiment [1] is above 1000 nM; in experiment [2], 17.9 ± 5.5 nM.
As to `C#CCn1c(=O)c2c(nc(C#Cc3cccc(OC)c3)n2C)n(CCN(C)C)c1=O` [drawing 536], the inhibition constant (Ki) in experiment [1] was above 1000 nM; in experiment [2], 161 ± 35 nM.
Consider `C#CCn1c(=O)c2c(nc(C#Cc3cccc(OC)c3)n2C)n(CC2CO2)c1=O` (centres unmarked), for which the Ki in experiment [1] is above 1000 nM; in experiment [2], 38.2 ± 12 nM.
For `C#CCn1c(=O)c2c(nc(C#Cc3ccc(OC)c(OC)c3)n2CC#C)n(CC)c1=O` the same measures were above 1000 nM and 132 ± 60 nM.
On the same counts, the results for `C#CCn1c(=O)c2c(nc(C#Cc3ccc(OC)c(OC)c3)n2C)n(CCNC)c1=O` are at least 1000 nM and 134 ± 16 nM.
For the molecule `C#CCn1c(=O)c2c(nc(C#Cc3ccc(OC)c(OC)c3)n2C)n(CC(C)O)c1=O` (centres unmarked) [drawing 502], the inhibition constant Ki stood at 189 ± 33 nM in experiment [1] and 13.3 ± 1.4 nM in experiment [2].
For `C#CCn1c(=O)c2c(nc(C#Cc3ccc(OC)c(OC)c3)n2C)n(CC(F)(F)F)c1=O`, the results for the Ki in experiment [1] and in experiment [2] were at least 1000 nM and 12.7 ± 2.8 nM, respectively.
For `C#CCn1c(=O)c2c(nc(C#Cc3ccc(OC)c(OC)c3)n2C)n(C[C@H](C)CO)c1=O` the same measures were 146 ± 46 nM and 1.83 ± 0.38 nM.
For `C#CCn1c(=O)c2c(nc(C#Cc3cccc(OC)c3)n2CC#CC)n(C)c1=O` the same measures were 96 ± 16.4 nM and 36.2 ± 4.5 nM.
For `C#CCn1c(=O)c2c(nc(C#Cc3ccc(OC)c(OC)c3)n2C)n(CCOCC)c1=O` the same measures were above 1000 nM and 35.6 ± 14.1 nM.
As to `C#CCn1c(=O)c2c(nc(C#Cc3ccc(OC)c(OC)c3)n2C)n(CC(O)CO)c1=O` (centres unmarked) [drawing 537], the Ki is above 1000 nM in experiment [1] and 42.3 ± 5.7 nM in experiment [2].
For `C#CCn1c(=O)c2c(nc(C#Cc3ccc(OC)c(OC)c3)n2C)n(CCCC#N)c1=O` [drawing 508] the same measures were above 1000 nM and 22.9 ± 7.6 nM.
On the same counts, the results for `C#CCn1c(=O)c2c(nc(C#Cc3cccc(C)c3)n2C)n(C)c1=O` [drawing 460] are above 10000 nM and 43.4 ± 11.6 nM.
On the same counts, the results for `C#CCn1c(=O)c2c(nc(C#Cc3ccc(OC)c(OC)c3)n2C)n(C)c1=O` [drawing 458] are above 10000 nM and 32.7 ± 6.1 nM.
Turning to `C#CCn1c(=O)[nH]c2nc(C#Cc3cccc(OC)c3)n(C)c2c1=O`, the values for the Ki in experiment [1] and in experiment [2] were above 1000 nM and 135 ± 28 nM, respectively.
On to `C#CCn1c(=O)c2c(nc(C#Cc3ccc(OC)c(OC)c3)n2C)n(CCOC)c1=O` [drawing 498], for which the Ki was above 1000 nM in experiment [1] and 45.9 ± 13.5 nM in experiment [2].
With `C#CCn1c(=O)c2c(nc(C#Cc3ccc(OC)c(OC)c3)n2C)n(Cc2cnc[nH]2)c1=O` [drawing 527], the values for the Ki in experiment [1] and in experiment [2] were above 1000 nM and 28.8 ± 4.1 nM, respectively.
On the same counts, the results for `C#CCn1c(=O)c2c(nc(C#Cc3ccc(OC)c(OC)c3)n2C)n(CC(=O)CC)c1=O` are above 1000 nM and 91.7 ± 38.3 nM.
For `C#CCn1c(=O)c2c(nc(C#Cc3cccc(Cl)c3)n2C)n(CC)c1=O` the same measures were 488 ± 253 nM and 141 ± 28 nM.
For `C#CCn1c(=O)c2c(nc(C#Cc3cccc(OC(C)=O)c3)n2C)n(C)c1=O` [drawing 472] the same measures were 1170 ± 731 nM and 140 ± 12 nM.
Turning to `C#CCn1c(=O)c2c(nc(C#Cc3cccc(OC)c3)n2C)n(CC(O)CO)c1=O` (centres unmarked) [drawing 492], the inhibition constant Ki was above 1000 nM in experiment [1] and 69.8 ± 17.1 nM in experiment [2].
On the same counts, the results for `C#CCn1c(=O)c2c(nc(C#Cc3cccc(OCC)c3)n2C)n(C)c1=O` are around 10000 nM and 174 ± 42 nM.
On the same counts, the results for `C#CCn1c(=O)c2c(nc(C#Cc3cccc(OCC=C)c3)n2C)n(C)c1=O` are at least 10000 nM and 152 ± 63 nM.
Regarding `C#CCn1c(=O)c2c(nc(C#Cc3cccc(OC)c3)n2C)n(CC)c1=O` [drawing 485], the Ki in experiment [1] was above 10000 nM; in experiment [2], 49.9 ± 9.7 nM.
For `C#CCn1c(=O)c2c(nc(C#Cc3ccc(OC)c(OC)c3)n2C)n(CCC#N)c1=O` [drawing 501] the same measures were above 1000 nM and 76.4 ± 32.9 nM.
As to `C#CCn1c(=O)c2c(nc(C#Cc3ccc(OC)c(OC)c3)n2C)n(CC(O)CO)c1=O` (centres unmarked) [drawing 493], the figures for the Ki in experiment [1] and in experiment [2] were at least 1000 nM and 42.3 ± 5.7 nM, respectively.
On the same counts, the results for `C#CCn1c(=O)c2c(nc(C#Cc3cccc(OC)c3)n2C)n(C)c1=O` [drawing 456] are above 10000 nM and 30.9 ± 8 nM.
For `C#CCn1c(=O)c2c(nc(C#Cc3ccc(OC)c(OC)c3)n2C)n(CCC=C)c1=O` the same measures were 176 ± 59 nM and 34.9 ± 6.9 nM.
On the same counts, the results for `C#CCn1c(=O)c2c(nc(C#Cc3ccc(OC)c(OC)c3)n2C)n(C(C)C(C)=O)c1=O` (centres unmarked) [drawing 524] are 157 ± 12 nM and 16 ± 6 nM.
With `C#CCn1c(=O)c2c(nc(C#Cc3cccc(OCCO)c3)n2C)n(C)c1=O` [drawing 469], the inhibition constant (Ki) is at least 10000 nM in experiment [1] and 117 ± 25 nM in experiment [2].
As to `CCn1c(=O)n(Cc2ccoc2)c(=O)c2c1nc(C#Cc1ccc(OC)c(OC)c1)n2C`, the values for the Ki in experiment [1] and in experiment [2] were 1250 ± 106 nM and 90.7 ± 11.2 nM, respectively.

The term Ki denotes the dissociation constant of the complex between target and ligand, obtained from inhibition or displacement. A higher Ki goes with a looser hold on the target.
